Experimental data published in patent publication US12427128B2, “Sensorineural hair cell differentiation” (Massachusetts Eye and Ear Infirmary, priority 2014, dated 2025).

How the values were obtained:
[1] = system: organ of Corti explants; experiment: Hair cell number in organ of Corti explants from Atoh1-GFP mice; type: cell-based, mouse; details: for new hair cells in organ of Corti explants: P1-P2 explants, 48 h
Excerpt: In this example, modulation of Pax2 and Sox2 expression in the differentiating inner ear cells included reducing Sox2 expression levels while increasing Pax2 expression level. Sox2 expression was modulated using DAFT (Jeon et al., j. Neurosci., 31:8351-8358 (2011)). Pax2 expression was modulated using FGF2 (Adamska et al., Mech. Dev., 109:303-313 (2001); Mansukhani et al., J. Cell. Biol., 168:1065-1076 (2005)). DAPT was used to decrease Sox2 and FGF2 to activate Pax2 expression in inner ear stein cells (see FIG. 12A). 4th-5th generation spheres or OC explants (P1-P2) were plated in 4-well plates (Greiner) on round 10 mm glass coverslips coated with poly-L-lysine (Cultrex) and attachment took place overnight in 10% FBS/DMEM-high glucose (GIBCO). Attachment was ensured with microscopic inspection and the medium was changed to serum-free DMEM-high glucose/F12 (mixed 1:1, GIBCO) and N2 and B27 (Invitrogen). Spheres were differentiated for 3, 7 or 10 d. For treatment, either DAFT (2.5 μM) or FGF (20 ng/ml) or control medium containing only DMSO (0.1%) were applied for 7d on spheres and 48 h on OC explants. Cells were harvested and further analyzed by immunohistochemistry. Axiovision 4.3 was used for data acquisition and the number of cells was quantified with Metamorph software. Cell counts were expressed as mean±standard deviation. An average of 1,000 cells were counted for spheres or 100 μm for OC explants. Origin software was used for statistical evaluation. Cell detection techniques are described in the Examples above.
Samples were obtained and detected using methods described above. Organ of Corti explants (P1-P2) from Atoh1-GFP mice were contacted with DAPT, FGF2, or a combination of both for 48 h. Hair cell number was then assessed.

[2] = system: Atoh1; experiment: Atoh1 expression by quantitative RT-PCR in OC-1 cells; type: cell-based, mouse; details: OC-1 cells treated with HDAC inhibitors
Procedure: Atoh1 levels were measured in vitro in OC-1 cells or spheres by quantitative RT-PCR. For RT-PCR. total RNA was extracted from OC-1 cells or spheres treated with RAPT, FGF2, or DART and RNAi with the RiNeasy Maxi Kit (Qiagen) according to the manufacturer's instructions. RNA was denatured at 65° C. for 5 min. For reverse transcription, ImProm II (Promega) was used with random hexamers. Reverse transcription conditions were 25° C. for 5 min followed by 42° C. for 60 min. Reactions were terminated at 70° C. for 15 min. c: ANAs were mixed with Platinum quantitative PCR Supermix ROX with UDG (Invitrogen) and primers for Atoh1, Pax2 or Sox2 (ABI) according to the manufacturer's instructions. Gene expression was measured relative to 18S RNA. Samples were analyzed in 96 well plates in triplicate by quantitative PCR (Applied Biosystems 7900HT) using the following conditions: initial denaturation at 95° C. for 2 min, denaturation at 95° C. for 40 s and annealing/extension at 60′ C for 35 s for 45 cycles.
To address whether interaction with DNA-binding co-factors influenced bound histones at the Atoh1 locus, drugs that block histone modifications were used.

C[C@H](NC(=O)Cc1cc(F)cc(F)c1)C(=O)N[C@H](C(=O)OC(C)(C)C)c1ccccc1 [DAPT]
new hair cells in organ of Corti explants [1]: additional outer hair cells were seen in the apex
numbers of hair cells ([1]; postnatal explants, DAPT with control siRNA): Increased numbers of hair cells

CC(/C=C/C(=O)NO)=C\[C@@H](C)C(=O)c1ccc(N(C)C)cc1 [TSA, Trichostatin A]
expression of Atoh1, qRT-PCR relative to 18S RNA [2]: increased expression of Atoh1

FGF2: growth factor used to activate Pax2 expression in inner ear stem cells; 20 ng/ml
new hair cells in organ of Corti explants [1]: additional outer hair cells were seen in the apex

CCCC(CCC)C(=O)O [VPA, valproic acid]
expression of Atoh1, qRT-PCR relative to 18S RNA [2]: increased expression of Atoh1
